Reference: patent US8097624B2, “Cycloalkyl derivatives of 3-hydroxy-4-pyridinones” (Apotex Inc., priority 2006, dated 2012)

Key:
[1] = Metal complexation constants, Fe system (spectrophotometric titration; pM by Hyss); type: binding; conditions: for Log β3: Fe(III) overall complexation constant; for pFe^3+: total iron 10^−6 M, ligand 10^−5 M, pH 7.4, calculated from experimental pKa and complexation constants
Experimental: Compounds of this invention are designed to improve properties to known deferiprone analogues. […]. The definition of pFe^3+ used herein is the concentration of ferric ion in solution when the total amount of iron equals 10^−6 M and the concentration of ligand is 10^−5 M and pH is 7.4. It is calculated using experimental determined pKa and metal complexation constants using Hyperquad software (Version 2.1, Peter Gans, University of Leeds). The lowering of the pKa value of the C3 phenolic OH to less than 8.8 ensures that a higher pFe^3+ value when combined with a favorable complexation constant β3. The concept of complexation is detailed below.
The stepwise and overall complexation constants of a bidentate ligand such as 3-hydroxy-4-pyridinone follow: Fe(III)+Ligand→Fe[Ligand]1K1 Fe[Ligand]1+Ligand→Fe[Ligand]2K2 Fe[Ligand]2+Ligand→Fe[Ligand]3K3 Complexation constant β3=K1.K2.K3
Stepwise formation constants for M^n+-ligand systems were determined by spectrophotometric titration when metal complexes have a strong absorbance in the visible region due to ligand to metal charge transfer. In a typical experiment, the sample solution was prepared according to the following method: Apo6619 (10.7 mg) was weighed into an 80-ml beaker, followed by the addition of 0.1 M NaCl (50 ml). The mixture was sonicated for 10 minutes to give a clear colorless solution. Iron stock solution (atomic absorption standard, Aldrich, 496 μl, 8.93E-06 moles) was pipetted into the solution followed by the addition of 1.000 N NaOH (137 μl). The molar ratio between the total iron and the total Apo6619 was 1:5.4. The mixture was allowed to equilibrate at room temperature overnight. Nitrogen was allowed to bubble through the solution. 1.000 N Hydrochloric acid (3 ml) was then added to the solution to give pH 1.5. The solution was allowed to equilibrate at 22° C. for 3 hours.
A sipper system was used for the circulation of the sample solution between the beaker and the flow cell.
The sample solution was titrated against standard NaOH solutions at 22° C. to reach pH 6.89. After each addition of base the solution was allowed to equilibrate until a constant pH reading was reached. The pH and the UV-Vis spectrum were recorded for each measurement. For each measurement enough base was added so that there was a slight increase in the absorbance of the spectrum. The solution was titrated until there was no obvious increase in the spectra after several subsequent additions of base. Altogether 64 measurements were taken to finish the experiment.
[…]; pM^n+ is defined as −log [M(H2O)m]^n+ at physiological conditions, i.e.: pH 7.4, a ligand concentration of 10 μM, and a metal concentration of 1 μM.
To calculate pM^n+ for a MLn system, βn and pKa values are needed (βn are the formation constants for M^n++n L^− ? MLn; pKa are the equilibrium constants for L^−+n H^+ ? LHn^(n−1)+). The pM^n+ can be calculated by using Hyss software (Hyperquad Stimulation and Speciation software: HYSS2© 2000 Protonic Sofware).

Iron Overloaded Rat = assay: Urinary and fecal iron excretion in the iron overloaded rat (first study, 450 μmoles/kg); type: in vivo; conditions: for urinary excretion of iron compared with deferiprone: 450 μmol/kg; for Fecal excretion (fecal iron, three days after chelator administration): 450 μmoles/kg oral, n=6, mean ± 1SD
Text: The purpose of this study was to determine the effectiveness of Apo6619 and Apo6617 in promoting iron excretion in the iron overloaded rat model. Iron overloading was achieved by administration of iron dextran. Iron overloading using iron dextran has previously been used to assess chelator efficacy in mice (Kontoghiorghes G. J., Mol. Pharmacol. 1986, 30(6), 670-3; Bartfay et al., Cardiovasc Res. 1999, 43(4), 892-900), gerbils (Hershko et al., J. Lab Clin Med 2002, 139, 50-58), rats (Rakba N. Biochem Pharmacol. 1998, 55(11):1796-1806) and primates (Bergeron et. al., Blood, 1992, 79(7), 1882-1890). The iron loading regime used in this study results in a 20-fold increase in liver iron and a 3.8-fold increase in cardiac iron levels in male rats.
Six male Sprague-Dawley rats (weighing between 200-250 gms) were received from Charles River Laboratories, Montreal, Quebec, Canada. Rats were iron loaded by administration of iron dextran intraperitoneally at a dose of 100 mg/kg, twice weekly for a period of 4 weeks for a total of 8 injections (iron dextran, Sigma). The total volume of iron dextran injected was 1 mL/kg. Following an eight week period, rats were transferred to metabolic cages (one rat/cage). Once the animals were in the metabolic cages, excreta (both urine and feces) were collected daily for at least 3 day prior to and 4 days following the administration of each chelator. Each of the two chelators (Apo6619 and Apo6617) was administered consecutively. Chelators were administered as a single dose of 450 μmoles/kg by oral gavage at a dose volume of 2-4 mL/kg. The animals were weighed prior to dosing to enable exact dosage administration. Animals were checked daily (eyes, skin and movement) after chelator administration to determine if there were any obvious signs of ill health. Urine and feces were stored at −20° C. until analysis for total iron concentrations.
Rats were housed in a climate and light controlled environment (temperature: 19-25° C., relative humidity 40%, 12 hrs light/dark cycle) throughout the study. During the acclimatization, iron loading and equilibration phases, rats were placed in standard cages (2 rats/cage), fed standard rodent chow and given regular tap water ad libitum. Rats were transferred to metabolic cages (one rat/cage, Nalgene, Rochester N.Y.) after iron loading and equilibration. Three days before placement of the rats in the metabolic cages, rats were fed a low iron diet (3 ppm iron, Dyets Inc., Bethlehem, Pa.) and given Millipore water ad libitum. Rats were continued on the low iron diet for the duration of the study. The purpose of placing animals on a low iron diet was to reduce the background noise produced by dietary iron in the fecal samples.
A 50 mg/ml dosing solution of the chelator of formula I (570 mg) was first dissolved in a mixture of Millipore water (2 ml) and 6N HCl (0.4 ml) and brought up to the final volume (11.4 ml) with Millipore water (9 ml). Final pH of the solutions was adjusted to pH 4 with diluted sodium hydroxide solution. Solutions were protected from light and prepared freshly prior to each administration.
Urine and feces samples were shipped to the Trace Elements Laboratory at the London Health Sciences Center, London, Ontario, Canada for analysis of total iron concentration. Briefly, feces samples were prepared by adding water, heating to 98° C., vortexing and subsequently freeze drying. The samples were then mixed, and a representative subsample taken and digested with boiling HNO3 and H2O2. Feces samples were then diluted 1:100 with ultrapure water prior to running using a high resolution sector field ICP-MS (Finnigan Element 1). Urine samples were digested with 0.1% HNO3 and diluted 1/10 prior to running on the ICP-MS. Appropriate calibration curves using iron spiked samples and NIST traceable standards were used. Samples lying above or below the quantification range were re-run. […]

[2] = single oral dose 450 μmoles/kg, n=6

SMILES	Log β3 [1]	pFe^3+ [1]	urinary excretion of iron compared with deferiprone (Iron Overloaded Rat)	Fecal excretion (fecal iron, three days after chelator administration) (Iron Overloaded Rat)	urinary iron excretion one day after chelator administration (Iron Overloaded Rat; [2])	urinary iron excretion second day after chelator administration (Iron Overloaded Rat; [2])	PM Fe(III) ([1]; pH 7.4, ligand 10 μM, metal 1 μM)	urinary iron excretion third day after chelator administration (Iron Overloaded Rat; [2])
Cc1cc(=O)c(O)c(C(=O)NC2CC2)n1C [Apo6617, 3-Hydroxy-1,6-dimethyl-4-oxo-1,4-dihydro-pyridine-2-carboxylic Acid Cyclopropylamide]	33.6	20.8	significantly higher than deferiprone	4411 ± 790 µg/day/kg	164 ± 55 µg/day/kg	17 ± 13 µg/day/kg		
CNC(=O)c1c(O)c(=O)cc(C)n1C1CC1 [Apo6619, 1-Cyclopropyl-3-hydroxy-6-methyl-4-oxo-1,4-dihydro-pyridine-2-carboxylic Acid Methylamide]	33.4	20.7	significantly higher than deferiprone	4154 ± 1245 µg/day/kg	240 ± 131 µg/day/kg	16 ± 5 µg/day/kg	20.5	5 ± 1 µg/day/kg
Cc1c(O)c(=O)ccn1C [deferiprone, 1,2-dimethyl-3-hydroxy-4-pyridinone, reference compound]	36.3	19.7		2157 ± 169 µg/day/kg	80 ± 32 µg/day/kg	returned to baseline		
